From PubChem BioAssay AID1963435 (Molecular Pharmacology Branch, DTP, NCI, 2024)

Test system: PANC-1 complex spheroid growth, percent test/control
Assay: Anticancer human tumor PANC-1 cell line growth inhibition [Asc];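 note: spheroids exposed to agents for 7 days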;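 for viability, T/C: percent viability relative to DMSO vehicle wells taken as 100%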
Conditions: for IC50: curve of first compound; for viability, T/C: stronger effect = lower value
Protocol: Multicellular complex tumor spheroid response to apoptosis pathway targeting inhibitors Alrizomadlin, Pelcitoclax, and Dasminapant in combination with a variety of drugs and investigational agents in selected tumor cell lines
The MDM2 inhibitor alrizomadlin, the Bcl-2/Bcl-xL inhibitor pelcitoclax, and the IAPs inhibitor dasminapant were evaluated both individually and in combination with standard of care and investigational anticancer small molecules within a complex spheroid model of solid tumors. . Complex spheroids include a stromal component modeled by human endothelial cells (HUVEC) and fibroblasts modeled by human mesenchymal stem cells (MSCs). The concentration ranges selected for each drug and investigational agent were based upon clinically achievable concentrations if the clinical Cmax of the agent was known.
Compounds. The drugs and investigational agents: alrizomadlin (APG-115; NSC831270), pelcitoclax (APG-1252; NSC835773), dasminapant (APG-1387;NSC834197), TAK-243 (NSC785004), copanlisib (NSC809693), olaparib (NSC753686), talazoparib (NSC767125), cobimetinib (NSC 768068), eltanexor (KPT-8602, NSC 794443), abemaciclib (NSC 768073), sotorasib (NSC818433), adagrasib (NSC 831453), MRTX-1133 (NSC 836407), Iadademestat (ORY1001, NSC 806812), and RMC-4630 (NSC839698), were obtained from the NCI Developmental Therapeutics Program Chemical Repository. The FDA-approved anticancer drug set is available from the Developmental Therapeutics Program at https://dtp.cancer.gov/organization/dscb/obtaining/available plates.htm. […] The stock solutions were prepared in dimethyl sulfoxide (DMSO, Sigma-Aldrich, St. Louis, MO, cat. D2650) at 800-fold the tested concentration and stored at -70 degrees C prior to their use. All drugs and investigational agents were tested over a range starting from a high concentration at or near the clinical Cmax and decreasing in half-log increments. If the clinical Cmax for an agent had not been determined, the highest concentration tested was 10 microM.
The patient-derived cancer (PDC) cell lines include five colon adenocarcinomas: 186277-243-T-J2-PDC, 616215-338-R-J1-PDC, 439559-082-T-J2-PDC, 463943-066-T-J2-PDC, and 519858-162-T-J1-PDC; three pancreatic carcinomas: 323965-272-R-J2-PDC, 521955-158-R6-J3-PDC, and 521955-158-R2-J5-PDC; two uterine sarcomas: 327498-152-R-J2-PDC and 993429-296-R-J1-PDC; two rhabdomyosarcomas: 755483-174-R-J1-PDC and 772245-204-R-J1-PDC; two soft tissue sarcomas: 126254-015-R-J1-PDC and 494315-158-R-J1-PDC; two malignant fibrous histiocytomas: 317291-083-R-J1-PDC and 596521-263-R-J1-PDC; two breast carcinomas: 171881-019-R-J1-PDC and 885512-296-R-J2-PDC; and one ovarian carcinoma: 6556581-035-R-J-PDC were obtained from the NCI PDMR, (https://pdmr.cancer.gov). The established cell lines HSSY-2 synovial sarcoma (RRID:CVCL 8719), SYO-1 synovial sarcoma (RRID:CVCL_7146), MPNST malignant peripheral neural sheath tumor were obtained from the Sloan Kettering Institute. The following established cell lines were purchased from the American Type Culture Collection (ATCC, Manassas, VA), Sor the received from the NCI repository:, PANC-1 pancreatic carcinoma (CRL-1469, RRID:CVCL_0480), OVCAR-5 ovarian carcinoma (RRID:CVCL_1628), OVCAR-8 ovarian carcinoma (RRID:CVCL_1629), , MCF-7 breast carcinoma (CRL-12584, RRID:CVCL_0031), MDA-MB-231 breast carcinoma (CRL-12532, RRID:CVCL_0062), NCI-H1876 small cell lung carcinoma (CRL-5902, RRID:CVCL_1503), NCI-H510A small cell lung carcinoma (HTB-184, RRID:CVCL_1565), NCI-H1417 (CRL-5869, RRID:CVCL_1469), and NCI-H196 small cell lung carcinoma (CRL-5823, RRID:CVCL_1509). Dr. Peter Houghton (Greehey Children's Cancer Research Institute, University of Texas Health Science Center, San Antonio, TX) provided Rh-18 rhabdomyosarcoma (RRID:CVCL_1659). Pooled donor human umbilical vein endothelial cells (HUVEC, Lonza, cat. CC-2519) and human mesenchymal stem cells (hMSC, Lonza, cat. PT-2501) were purchased from Lonza (Walkersville, MD).
Cell Culture. […]

[1] = second compound 0.00949 µM, first compound 0.00316 µM
[2] = second compound 0.00949 µM, first compound 0.01 µM
[3] = second compound 0.00949 µM, first compound 0.0316 µM
[4] = second compound 0.00949 µM, first compound 0.1 µM
[5] = second compound 0.00949 µM, first compound 0.316 µM
[6] = second compound 0.00949 µM, first compound 1 µM
[7] = second compound 0.03 µM, first compound 0.00316 µM
[8] = second compound 0.03 µM, first compound 0.01 µM
[9] = second compound 0.03 µM, first compound 0.0316 µM
[10] = second compound 0.03 µM, first compound 0.1 µM
[11] = second compound 0.03 µM, first compound 0.316 µM
[12] = second compound 0.03 µM, first compound 1 µM
[13] = second compound 0.0949 µM, first compound 0.00316 µM
[14] = second compound 0.0949 µM, first compound 0.01 µM
[15] = second compound 0.0949 µM, first compound 0.0316 µM
[16] = second compound 0.0949 µM, first compound 0.1 µM
[17] = second compound 0.0949 µM, first compound 0.316 µM
[18] = second compound 0.0949 µM, first compound 1 µM
[19] = second compound 0.3 µM, first compound 0.00316 µM
[20] = second compound 0.3 µM, first compound 0.01 µM
[21] = second compound 0.3 µM, first compound 0.0316 µM
[22] = second compound 0.3 µM, first compound 0.1 µM
[23] = second compound 0.3 µM, first compound 0.316 µM
[24] = second compound 0.3 µM, first compound 1 µM
[25] = second compound 0.949 µM, first compound 0.00316 µM
[26] = second compound 0.949 µM, first compound 0.01 µM
[27] = second compound 0.949 µM, first compound 0.0316 µM
[28] = second compound 0.949 µM, first compound 0.1 µM
[29] = second compound 0.949 µM, first compound 0.316 µM
[30] = second compound 0.949 µM, first compound 1 µM
[31] = second compound 3 µM, first compound 0.00316 µM
[32] = second compound 3 µM, first compound 0.01 µM
[33] = second compound 3 µM, first compound 0.0316 µM
[34] = second compound 3 µM, first compound 0.1 µM
[35] = second compound 3 µM, first compound 0.316 µM
[36] = second compound 3 µM, first compound 1 µM

With CCN1CCN(Cc2ccc(Nc3ncc(F)c(-c4cc(F)c5nc(C)n(C(C)C)c5c4)n3)nc2)CC1 + CCN1C(C(=O)NC23CCC(C(=O)O)(CC2)CC3)C(c2cccc(Cl)c2F)C2(C(=O)Nc3cc(Cl)ccc32)C12CCCCC2 the IC50 (second compound 0.00949 µM) was > 1 µM, the IC50 (second compound 0.03 µM) was > 1 µM and the IC50 (second compound 0.0949 µM) was > 1 µM. For the same molecule, the IC50 (second compound 0.3 µM) was > 1 µM, the IC50 (second compound 0.949 µM) was > 1 µM and the IC50 (second compound 3 µM) was > 1 µM. It also gave a viability, T/C [1] of 112%, a viability, T/C [2] of 102% and a viability, T/C [3] of 109%. It also gave a viability, T/C [4] of 117%, a viability, T/C [5] of 126% and a viability, T/C [6] of 139%. The viability, T/C [7] was 105%, the viability, T/C [8] was 97.8% and the viability, T/C [9] was 114%. The viability, T/C [10] was 114%, the viability, T/C [11] was 131% and the viability, T/C [12] was 141%. The viability, T/C [13] was 108%, the viability, T/C [14] was 108% and the viability, T/C [15] was 105%. For the same molecule, the viability, T/C [16] was 105%, the viability, T/C [17] was 125% and the viability, T/C [18] was 140%. The viability, T/C [19] was 99.8%, the viability, T/C [20] was 131% and the viability, T/C [21] was 110%. It also gave a viability, T/C [22] of 117%, a viability, T/C [23] of 124% and a viability, T/C [24] of 150%. It also gave a viability, T/C [25] of 102%, a viability, T/C [26] of 119% and a viability, T/C [27] of 121%. It also gave a viability, T/C [28] of 111%, a viability, T/C [29] of 128% and a viability, T/C [30] of 140%. It also gave a viability, T/C [31] of 116%, a viability, T/C [32] of 125% and a viability, T/C [33] of 118%. The viability, T/C [34] was 124%, the viability, T/C [35] was 131% and the viability, T/C [36] was 157%.
In the case of O=C(c1ccc(F)c(F)c1Nc1ccc(I)cc1F)N1CC(O)([C@@H]2CCCCN2)C1 + CCN1C(C(=O)NC23CCC(C(=O)O)(CC2)CC3)C(c2cccc(Cl)c2F)C2(C(=O)Nc3cc(Cl)ccc32)C12CCCCC2, the IC50 (second compound 0.00949 µM) is reported as > 1 µM, the IC50 (second compound 0.03 µM) is reported as > 1 µM and the IC50 (second compound 0.0949 µM) is reported as > 1 µM. The IC50 (second compound 0.3 µM) was > 1 µM, the IC50 (second compound 0.949 µM) was > 1 µM and the IC50 (second compound 3 µM) was > 1 µM. It also gave a viability, T/C [1] of 90.7%, a viability, T/C [2] of 93.4% and a viability, T/C [3] of 87.1%. It also gave a viability, T/C [4] of 81.8%, a viability, T/C [5] of 93.1% and a viability, T/C [6] of 93.7%. The viability, T/C [7] was 90.5%, the viability, T/C [8] was 98.3% and the viability, T/C [9] was 98.5%. For the same molecule, the viability, T/C [10] was 87.3%, the viability, T/C [11] was 95% and the viability, T/C [12] was 97.4%. For the same molecule, the viability, T/C [13] was 93.9%, the viability, T/C [14] was 97% and the viability, T/C [15] was 88.4%. The viability, T/C [16] was 84.2%, the viability, T/C [17] was 92.4% and the viability, T/C [18] was 104%. It also gave a viability, T/C [19] of 97.5%, a viability, T/C [20] of 89.4% and a viability, T/C [21] of 89.6%. The viability, T/C [22] was 91.7%, the viability, T/C [23] was 100% and the viability, T/C [24] was 93.8%. For the same molecule, the viability, T/C [25] was 100%, the viability, T/C [26] was 104% and the viability, T/C [27] was 91.8%. It also gave a viability, T/C [28] of 105%, a viability, T/C [29] of 104% and a viability, T/C [30] of 99%. It also gave a viability, T/C [31] of 110%, a viability, T/C [32] of 115% and a viability, T/C [33] of 106%. The viability, T/C [34] was 105%, the viability, T/C [35] was 109% and the viability, T/C [36] was 112%.
